# Assays:
# [1] = test system: Infectious bronchitis (corona virus); experiment: Administration test to broiler chicken 2 (farm); assay type: in vivo, broiler chicken (Ross); details: antibiotic administered before the Impact treatment
# Experimental: In the second test, referring to <Table 3> in the below, infectious bronchitis (corona virus) occurred among 24,000 of Ross breeds at the age of 20 days at the broiler chicken consignment farm mentioned above. […] For the test, the product of the present invention was fed at the recommended dosage and was administered in the same way for 3 days.
# [2] = test system: Staphylococcus aureus ATCC 6538; experiment: In vitro antibacterial power test (KFDA guidelines for external disinfectants), 5 minutes contact; assay type: cell-based; details: inoculum 1.0 × 10^3 CFU/mL
# Description: (§1) The <Table 1> below is based on the official test report of a test that was requested to and performed by the Korea Analytical Testing Research Institute as a test institution. […] In this case, an inhibition rate (%) of the test result is as follows: Inhibition Rate (%)=(Number of Bacteria in Control Group−Number of Bacteria in Sample Group)/Number of Bacteria in Control Group.
# [3] = test system: Escherichia coli (E. coli) ATCC 8739; experiment: as above; assay type: cell-based; details: inoculum 1.3 × 10^3 CFU/mL
# Description: as §1
# [4] = test system: Salmonella Typhimurium ATCC 14028; experiment: as above; assay type: cell-based; details: inoculum 1.1 × 10^3 CFU/mL
# Description: as §1
compound,measurement,setting,value
"CC1(C)S[C@@H]2[C@H](NC(=O)[C@H](N)c3ccccc3)C(=O)N2[C@H]1C(=O)O [Ampicillin 100, ampicillin]",respiratory symptoms,[1],symptoms persisted.
same,Inhibition rate (%) of number of viable cells after 5 minutes [Antibacterial power],[2],(94.6%)
same,number of viable cells after 5 minutes,[2]; control group 1.5 × 10^3,8.1 × 10^1 CFU/mL
same,Inhibition rate (%) of number of viable cells after 5 minutes [Antibacterial power],[3],(99.9%)
same,Inhibition rate (%) of number of viable cells after 5 minutes [Antibacterial power],[4],(98.6%)
same,number of viable cells after 5 minutes,[4]; control group 1.6 × 10^3,2.1 × 10^1 CFU/mL
